# Results published in publication PMC10487437 (International Journal of Molecular Sciences, 2023).
# Primed or numbered codes have the meaning given here. * marks the point of attachment. Dabcyl′ = CN(C)c1ccc(/N=N/c2ccc(C(=O)*)cc2)cc1; EDANS = O=S(=O)(O)c1cccc2c(NCCN*)cccc12
# B1: Dabcyl-KQ5GD-EDANS (peptide)
# peptide: {Dabcyl′}-KQQQQQGD-{EDANS}
# SMILES: CN(C)c1ccc(/N=N/c2ccc(C(=O)N[C@@H](CCCCN)C(=O)N[C@@H](CCC(N)=O)C(=O)N[C@@H](CCC(N)=O)C(=O)N[C@@H](CCC(N)=O)C(=O)N[C@@H](CCC(N)=O)C(=O)N[C@@H](CCC(N)=O)C(=O)NCC(=O)N[C@@H](CC(=O)O)C(=O)NCCNc3cccc4c(S(=O)(=O)O)cccc34)cc2)cc1
# B2: Dabcyl-KQ10GD-EDANS (peptide)
# peptide: {Dabcyl′}-KQQQQQQQQQQGD-{EDANS}
# SMILES: CN(C)c1ccc(/N=N/c2ccc(C(=O)N[C@@H](CCCCN)C(=O)N[C@@H](CCC(N)=O)C(=O)N[C@@H](CCC(N)=O)C(=O)N[C@@H](CCC(N)=O)C(=O)N[C@@H](CCC(N)=O)C(=O)N[C@@H](CCC(N)=O)C(=O)N[C@@H](CCC(N)=O)C(=O)N[C@@H](CCC(N)=O)C(=O)N[C@@H](CCC(N)=O)C(=O)N[C@@H](CCC(N)=O)C(=O)N[C@@H](CCC(N)=O)C(=O)NCC(=O)N[C@@H](CC(=O)O)C(=O)NCCNc3cccc4c(S(=O)(=O)O)cccc34)cc2)cc1
# B3: Dabcyl-KQ10PPD-EDANS (peptide)
# peptide: {Dabcyl′}-KQQQQQQQQQQPPD-{EDANS}
# SMILES: CN(C)c1ccc(/N=N/c2ccc(C(=O)N[C@@H](CCCCN)C(=O)N[C@@H](CCC(N)=O)C(=O)N[C@@H](CCC(N)=O)C(=O)N[C@@H](CCC(N)=O)C(=O)N[C@@H](CCC(N)=O)C(=O)N[C@@H](CCC(N)=O)C(=O)N[C@@H](CCC(N)=O)C(=O)N[C@@H](CCC(N)=O)C(=O)N[C@@H](CCC(N)=O)C(=O)N[C@@H](CCC(N)=O)C(=O)N[C@@H](CCC(N)=O)C(=O)N3CCC[C@H]3C(=O)N3CCC[C@H]3C(=O)N[C@@H](CC(=O)O)C(=O)NCCNc3cccc4c(S(=O)(=O)O)cccc34)cc2)cc1
# Legend:
# [1] = molecular target: 20S proteasome (mouse (endogenous in brain)) (UniProt Q60692)
# [2] = molecular target: 26S proteasome (mouse (endogenous in brain)) (UniProt Q60692)
# [3] = test system: T1, 20S proteasome from murine brain; experiment: Specific peptidase activity of 20S proteasome with additives (Table S1); format: biochemical, mouse; conditions: for Specific peptidase activity using Suc-LLVY-AMC: 20S plus additive: 0.5 µM Bortezomib, 0.1 µM MG132, 0.02% SDS or 11S (1:2, mole:mole), 20S alone 2.37 ± 0.13
# T1 construct: from tissue; host or cells: mouse brain
# Excerpt: Characterization of puriﬁed proteasomes
# teasomes. […] To conﬁrm that
# cathepsin B [48] (Table S1).
# reaction mixture for both 20S and 26S.
# Table S1. Peptidase activity of the samples of 20S and 26S proteasome from murine brain.
# The molar ratio between the proteasome
# [4] = test system: 26S proteasome from murine brain; experiment: Specific peptidase activity of 26S proteasome with additives (Table S1)
# [5] = test system: T2, 20S proteasome; experiment: Apparent kinetic parameters of FRET substrate hydrolysis by 20S proteasome; format: biochemical, mouse; conditions: substrate 5 to 100 µM, 37 °C, means ± SEM of three independent experiments run in duplicate; for Km: Michaelis-Menten, fluorescence 340/490 nm, 1 h
# T2 construct: from tissue; host or cells: mouse brain
# [6] = test system: T3, 20S+11S; experiment: Apparent kinetic parameters of FRET substrate hydrolysis by 20S+11S complex; format: biochemical, mouse; conditions: for Km / Vmax·10^−2: apparent, 20S+11S, molar ratio 1:4, substrate 5 to 100 µM, 37 °C, means ± SEM of three independent experiments run in duplicate; for Km: Michaelis-Menten, fluorescence 340/490 nm, 1 h; for Vmax (+11S)/Vmax: ratio of Vmax by 20S+11S to Vmax by 20S, proteasome:11S 1:4
# T3 construct: from tissue; host or cells: mouse brain
# [7] = test system: T4, 26S proteasome; experiment: Apparent kinetic parameters of FRET substrate hydrolysis by 26S proteasome; format: biochemical, mouse; conditions: substrate 5 to 100 µM, 37 °C, means ± SEM of three independent experiments run in duplicate; for Km: Michaelis-Menten, fluorescence 340/490 nm, 1 h
# T4 construct: from tissue; host or cells: mouse brain
# [8] = test system: T5, 26S+11S; experiment: Apparent kinetic parameters of FRET substrate hydrolysis by 26S+11S complex; format: biochemical, mouse; conditions: for Km / Vmax·10^−2: apparent, 26S+11S, molar ratio 1:4, substrate 5 to 100 µM, 37 °C, means ± SEM of three independent experiments run in duplicate; for Km: Michaelis-Menten, fluorescence 340/490 nm, 1 h; for Vmax (+11S)/Vmax: ratio of Vmax by 26S+11S to Vmax by 26S, proteasome:11S 1:4
# T5 construct: from tissue; host or cells: mouse brain
# [9] = test system: T2, 20S proteasome; experiment: Determination of proteolysis sites of oligoglutamine peptides by LC-MS; format: biochemical, mouse; conditions: for Products of proteasomal hydrolysis identified: LC-MS, identical for all proteasome complexes (20S, 20S+11S, 26S, 26S+11S); for Peak of the starting substrate after incubation with 20S proteasome: incubation for 48 h, UPLC C18, UV-VIS and MS detection
# Description: Next, we determined proteolysis sites for our oligoglutamine-containing peptides using liquid chromatography-mass spectrometry (LC-MS). The chromatogram of the Dabcyl-KQ5GD-EDANS solution in DMSO (Figure 3a) has a peak at the retention time of 1.69 min. According to the mass spectrum (Figure 3b), this peak corresponds to the Dabcyl-KQ5GD-EDANS (M = 1458.69 g/mole; z = 2; m/z = 729) molecule. Another fragment with m/z = 252 corresponds to the Dabcyl- (C15H14N3O), and the one with m/z = 380 corresponds to the DabcylK- (C21H26N5O2) fragment. These peaks are likely to arise due to fragmentation in a mass spectrometer since, upon hydrolysis, the masses of these fragments would be 269 and 397, respectively. After the incubation with proteasome for 48 h, the peak at 1.69 min disappeared (Figure 3c), and two other peaks appeared with retention times equal to 1.45 and 1.72 min. These peaks were assigned to the N- and C-ends of the peptide on the basis of the difference in the absorption spectra of the Dabcyl and EDANS moieties. […] Other products were not detected either at short (15 min) or longer hydrolysis times (72 h).
# Next, we identified cleavage sites for the substrate with a longer oligoglutamine fragment (Figure 4). The peak with a retention time of 1.06 min (Figure 4a) that corresponds to the Dabcyl-KQ10PPD-EDANS (M = 2236.38 g/mole; z = 2; m/z = 1118) molecule (Figure 4b) disappeared after the substrate was incubated with the 20S proteasome for 48 h. Instead, two other peaks appeared, at 1.14 and 1.37 min (Figure 4c). According to UV spectra for both peaks, the fragment at 1.14 min had Dabcyl chromophore, and the second fragment carried EDANS fluorophore. Finally, according to mass calculation, the first product was attributed to the Dabcyl-KQ2 fragment (Figure 4d) and the second one to the Q7PPD-EDANS moiety (Figure 4e).
# Peptide samples were analyzed on an Acquity UPLC system (Waters, Milford, MA, USA) connected to a PDA detector and TQD mass spectrometer (Waters). […] The gradient program was as follows: from 5%B to 50%B per 3 min, from 50%B to 5%B per 0.1 min, at a flow rate of 0.5 mL/min and a temperature of 35 °C. Solvent A: 20 mM formic acid in acetonitrile/water (1:20)/Solvent B: 20 mM formic acid in acetonitrile. Instrument settings and measuring parameters TQD were as follows: capillary voltage 3.5 kV; cone voltage 25 V; source temperature 120 °C; desolvation temperature 450 °C; cone gas flow 50 L/h; desolvation gas flow 800 L/h; MS1 scanning mass from 50 to 1500 Da; positive polarity. The PDA detector range was 220–500 nm. The resulting raw data were analyzed using the MassLynx software (version 4.1 SCN919).
# [10] = means ± SEM of three independent experiments run in duplicate
# Chain of 26S proteasome (mouse (endogenous in brain)) (Q60692 whole entry, looked up): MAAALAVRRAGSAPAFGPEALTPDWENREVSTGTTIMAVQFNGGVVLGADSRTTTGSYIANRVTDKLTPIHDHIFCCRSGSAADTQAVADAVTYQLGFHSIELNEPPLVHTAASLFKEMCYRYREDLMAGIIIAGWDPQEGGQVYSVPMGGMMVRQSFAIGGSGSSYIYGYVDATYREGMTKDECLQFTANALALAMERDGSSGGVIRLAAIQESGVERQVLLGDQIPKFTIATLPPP
# Chain of 20S proteasome (mouse (endogenous in brain)) (Q60692 whole entry, looked up): as above
Molecule,Km [5] [µM],Vmax·10^−2 [5],Km [6] [µM],Vmax·10^−2 [6],Vmax (+11S)/Vmax [6],Km [7] [µM],Vmax·10^−2 [7],Km [8] [µM],Vmax·10^−2 [8],Vmax (+11S)/Vmax [8],apparent Km of hydrolysis by 20S+11S (proteasome:11S 1:4) [1] [µM],apparent Km of hydrolysis by the 20S proteasome [1] [µM],apparent Km of hydrolysis by 26S+11S (proteasome:11S 1:4) [2] [µM],apparent Km of hydrolysis by the 26S proteasome [2] [µM],also measured
11S regulator (PA28αβ) (from UniProt P97371 1-249; P97372 1-239) (complex),,,,,,,,,,,,,,,"Vmax (+11S)/Vmax of hydrolysis of Dabcyl-KQ5GD-EDANS by the 20S proteasome, proteasome:11S 1:4 [1]: 2.7; Vmax (+11S)/Vmax of hydrolysis of Dabcyl-KQ10GD-EDANS by the 20S proteasome, proteasome:11S 1:4 [1]: 1.5; Vmax (+11S)/Vmax of hydrolysis of Dabcyl-KQ10PPD-EDANS by the 20S proteasome, proteasome:11S 1:4 [1]: 2.3; Vmax (+11S)/Vmax of hydrolysis of Dabcyl-KQ5GD-EDANS by the 26S proteasome, proteasome:11S 1:4 [2]: 1; Vmax (+11S)/Vmax of hydrolysis of Dabcyl-KQ10GD-EDANS by the 26S proteasome, proteasome:11S 1:4 [2]: 1.4; Vmax (+11S)/Vmax of hydrolysis of Dabcyl-KQ10PPD-EDANS by the 26S proteasome, proteasome:11S 1:4 [2]: 2"
"11S: 11S proteasomal regulator (PA28) consisting of α/β subunits, isolated from mouse brain",,,,,,,,,,,,,,,"Specific peptidase activity using Suc-LLVY-AMC [3, 10]: 8.8 ± 0.4 nM/min/µg; Specific peptidase activity using Z-LLE-AMC ([3]; 20S+11S (1:2, mole:mole), 20S alone 1.14 ± 0.02, means ± SEM of three independent experiments run in duplicate): 5.2 ± 0.1 nM/min/µg; Specific peptidase activity using Ac-RLR-AMC ([3]; 20S+11S (1:2, mole:mole), 20S alone 2.78 ± 0.07, means ± SEM of three independent experiments run in duplicate): 8.4 ± 0.2 nM/min/µg; Specific peptidase activity using Ac-RLR-AMC ([4]; 26S+11S (1:2, mole:mole), 26S alone 1.92 ± 0.06, means ± SEM of three independent experiments run in duplicate): 2.5 ± 0.2 nM/min/µg; Specific peptidase activity using Z-LLE-AMC ([4]; 26S+11S (1:2, mole:mole), 26S alone 5.4 ± 0.1, means ± SEM of three independent experiments run in duplicate): 6.7 ± 0.5 nM/min/µg"
CCCCCCCCCCCCOS(=O)(=O)[O-].[Na+] [SDS],,,,,,,,,,,,,,,"Specific peptidase activity using Suc-LLVY-AMC [3, 10]: 34 ± 6 nM/min/µg; Increase of the activity of the 20S proteasome ([3]; in the presence of 0.02% SDS): 13–15 times; Effect on the 26S proteasome activity ([4]; in the presence of 0.02% SDS): completely inhibited"
"Dabcyl-KQ5GD-EDANS [internally quenched fluorogenic FRET substrate with five glutamine residues, EDANS-Dabcyl pair]",52 ± 8,2.3 ± 0.3 10^−2 μM·min^−1,60 ± 8,6.1 ± 1.4 10^−2 μM·min^−1,2.7,54 ± 10,2.0 ± 0.3 10^−2 μM·min^−1,52 ± 10,2.1 ± 0.3 10^−2 μM·min^−1,1.0,,,,,Products of proteasomal hydrolysis identified [9]: Dabcyl-KQ2 and QGD-EDANS; Peak of the starting substrate after incubation with 20S proteasome [9]: disappeared
"Dabcyl-KQ10GD-EDANS [internally quenched fluorogenic FRET substrate with ten glutamine residues, EDANS-Dabcyl pair]",40 ± 3,0.61 ± 0.02 10^−2 μM·min^−1,64 ± 14,0.92 ± 0.15 10^−2 μM·min^−1,1.5,18 ± 2,0.09 ± 0.01 10^−2 μM·min^−1,38 ± 9,0.12 ± 0.03 10^−2 μM·min^−1,1.4,,,,,
Dabcyl-KQ10PPD-EDANS,8.2 ± 1.5,0.73 ± 0.03 10^−2 μM·min^−1,5.3 ± 1.3,1.66 ± 0.07 10^−2 μM·min^−1,2.3,24.5 ± 10,2.3 ± 0.2 10^−2 μM·min^−1,20 ± 4.6,4.73 ± 0.35 10^−2 μM·min^−1,2.0,,,,,Products of proteasomal hydrolysis identified [9]: Dabcyl-KQ2 and Q7PPD-EDANS; Peak of the starting substrate after incubation with 20S proteasome [9]: disappeared
B1,,,,,,,,,,,60,52,52,54,
B2,,,,,,,,,,,64,40,38,18,
B3,,,,,,,,,,,5.3,8.2,20,24.5,
